Measurements published in the supplement of paper PMC10627819.

Assays:
S. aureus Newman = experiment: Bliss interaction score (quartile over a dose matrix) (fitness difference); higher = more antagonism (negative = synergy)
Summary of the method: (§1)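 Fitness here means normalised growth, inferred for single drugs from the combination data. Growth was OD595 at entry into stationary phase, divided by the plate's robust no-drug mean and capped at 1. The Bliss score is observed minus expected fitness, with the expectation being the product, and its quartiles span technical, biological and donor/recipient replicates.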

S. aureus DSM 20231 = experiment: as above
Summary of the method: as §1

B. subtilis 168 = experiment: as above
Summary of the method: as §1

S. pneumoniae D39V [1] = experiment: as above
Summary of the method: as §1

S. pneumoniae D39V [2] = experiment: fitness (endpoint OD595 vs no drug) (fraction); higher = more growth
Summary of the method: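 Fitness expresses the optical density reached at the stationary-phase transition as a fraction of the robust mean of no-drug control wells. It is capped at 1. Measurements were OD595 every 30 min for 14 h at 37 °C after inoculation of 384-well plates at OD595 0.01 (30 µl, or 55 µl for S. pneumoniae), minus the first reading.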
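For Bliss interaction score (quartile over a dose matrix) in this document: first quartile when negative (synergy) and third quartile when positive (antagonism).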
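For fitness (endpoint OD595 vs no drug) in this document: OD595 on entry to stationary phase over no-drug wells; at most 1.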

CC1(C)S[C@@H]2[C@H](NC(=O)[C@H](N)c3ccc(O)cc3)C(=O)N2[C@H]1C(=O)O [Amoxicillin] + CCC(C)C1C(=O)NC(=C)C(=O)NC(C(=O)NC(CSCC(C(=O)N1)NC(=O)/C(=C/C)/NC(=O)C(C(C)CC)N)C(=O)NC2C(SCC(NC(=O)CNC(=O)C3CCCN3C2=O)C(=O)NC(CCCCN)C(=O)NC4C(SCC(NC(=O)CNC(=O)C(NC(=O)C(NC(=O)C(NC(=O)CNC4=O)C)CC(C)C)CCSC)C(=O)NC(CC(=O)N)C(=O)NC(CCSC)C(=O)NC(CCCCN)C(=O)NC5C(SCC6C(=O)NC(C(=O)NC(CSC(C(C(=O)N6)NC(=O)C(NC5=O)C)C)C(=O)NC(CO)C(=O)NC(C(C)CC)C(=O)NC(CC7=CN=CN7)C(=O)NC(C(C)C)C(=O)NC(=C)C(=O)NC(CCCCN)C(=O)O)CC8=CN=CN8)C)C)C)CC(C)C [Nisin]
main component drawn
Settings	Bliss interaction score
B. subtilis 168	-0.105
S. aureus DSM 20231	-0.111
S. aureus Newman	-0.0715
S. pneumoniae D39V [1]	0.09

fitness, S. pneumoniae D39V [2], main component drawn
Settings	partner 0.4275 µg/mL	partner 0.855 µg/mL	partner 1.6 µg/mL	partner 1.71 µg/mL	partner 3.2 µg/mL	partner 6.4 µg/mL
first compound 0.0008 µg/mL	≥ 1	0.534	–	0.106	–	–
first compound 0.0015 µg/mL	0.981	–	0.135	0.119	0.0433	0.0441
first compound 0.003 µg/mL	0.953	0.705	0.38	0.13	0.0777	0.0249

fitness, S. pneumoniae D39V [2], one replicate, main component drawn
Settings	partner 1.6 µg/mL	partner 3.2 µg/mL	partner 6.4 µg/mL
first compound 0.0008 µg/mL	0.0458	0.094	0.0228
first compound 0.006 µg/mL	0.289	0.0544	0.0443

CC1(C)S[C@@H]2[C@H](NC(=O)[C@H](N)c3ccc(O)cc3)C(=O)N2[C@H]1C(=O)O [Amoxicillin] + CC[C@H]1OC(=O)[C@H](C)[C@@H](O[C@H]2C[C@@](C)(OC)[C@@H](O)[C@H](C)O2)[C@H](C)[C@@H](O[C@@H]2O[C@H](C)C[C@H](N(C)C)[C@H]2O)[C@](C)(OC)C[C@@H](C)C(=O)[C@H](C)[C@@H](O)[C@]1(C)O [Clarithromycin]
Settings	Bliss interaction score
B. subtilis 168	0.0461
S. aureus DSM 20231	-0.0818
S. aureus Newman	-0.0752
S. pneumoniae D39V [1]	0.177

fitness, S. pneumoniae D39V [2], one replicate
Settings	partner 0.007812 µg/mL	partner 0.01562 µg/mL	partner 0.03125 µg/mL	partner 0.0625 µg/mL	partner 0.125 µg/mL	partner 0.25 µg/mL
first compound 0.0008 µg/mL	0.921	0.834	0.67	0.748	0.666	0.364
first compound 0.0015 µg/mL	0.844	0.836	0.633	–	–	–
first compound 0.003 µg/mL	0.789	0.772	0.546	–	–	–
first compound 0.006 µg/mL	–	–	–	0.436	0.303	0.149

fitness, S. pneumoniae D39V [2]
Settings	partner 0.0625 µg/mL	partner 0.07 µg/mL	partner 0.125 µg/mL	partner 0.14 µg/mL	partner 0.25 µg/mL	partner 0.28 µg/mL
first compound 0.0008 µg/mL	–	0.212	–	0.157	–	0.0725
first compound 0.0015 µg/mL	0.681	0.24	0.567	0.133	0.366	0.0875
first compound 0.003 µg/mL	0.684	0.126	0.551	0.104	0.357	0.0502

CC1(C)S[C@@H]2[C@H](NC(=O)[C@H](N)c3ccc(O)cc3)C(=O)N2[C@H]1C(=O)O [Amoxicillin] + CN(C)C(=O)C(CCN1CCC(O)(c2ccc(Cl)cc2)CC1)(c1ccccc1)c1ccccc1 [Loperamide]
Settings	Bliss interaction score
B. subtilis 168	0.0397
S. aureus DSM 20231	-0.117
S. aureus Newman	0.0589
S. pneumoniae D39V [1]	0.0558

fitness, S. pneumoniae D39V [2]
Settings	partner 17.14 µg/mL	partner 20 µg/mL	partner 34.28 µg/mL	partner 40 µg/mL	partner 80 µg/mL
first compound 0.0008 µg/mL	0.993	–	0.945	–	–
first compound 0.0015 µg/mL	0.977	≥ 1	0.935	≥ 1	≥ 1
first compound 0.003 µg/mL	0.868	0.999	0.839	0.994	0.991

fitness, S. pneumoniae D39V [2], one replicate
Settings	first compound 0.0008 µg/mL	first compound 0.0015 µg/mL	first compound 0.003 µg/mL	first compound 0.006 µg/mL
partner 20 µg/mL	≥ 1	–	–	0.442
partner 40 µg/mL	≥ 1	–	–	0.448
partner 68.57 µg/mL	≥ 1	0.934	0.894	–
partner 80 µg/mL	≥ 1	–	–	0.212

CC1(C)S[C@@H]2[C@H](NC(=O)[C@H](N)c3ccc(O)cc3)C(=O)N2[C@H]1C(=O)O [Amoxicillin] + CO[C@H]1/C=C/O[C@@]2(C)Oc3c(C)c(O)c4c(O)c(c(/C=N/N5CCN(C)CC5)c(O)c4c3C2=O)NC(=O)/C(C)=C\C=C\[C@H](C)[C@H](O)[C@@H](C)[C@@H](O)[C@@H](C)[C@H](OC(C)=O)[C@@H]1C [Rifampicin]
Settings	Bliss interaction score
B. subtilis 168	0.0837
S. aureus DSM 20231	0.133
S. aureus Newman	0.073
S. pneumoniae D39V [1]	0.0783

S. pneumoniae D39V [2], partner 0.025 µg/mL
Settings	fitness
first compound 0.0008 µg/mL	0.925
first compound 0.0015 µg/mL	0.917
first compound 0.003 µg/mL	0.905

S. pneumoniae D39V [2], one replicate
Settings	fitness
first compound 0.0008 µg/mL, partner 0.2 µg/mL	0
first compound 0.0015 µg/mL, partner 0.2 µg/mL	0
first compound 0.003 µg/mL, partner 0.2 µg/mL	0
first compound 0.006 µg/mL, partner 0.025 µg/mL	0.468
first compound 0.006 µg/mL, partner 0.05 µg/mL	0.546
first compound 0.006 µg/mL, partner 0.1 µg/mL	0.261
